The compounds below were run against T1, IRAK-4 (Homo sapiens, UniProt Q9NWZ3) (assay: IRAK-4 ELISA, PBMC degradation). Details: treated overnight.
T1 sequence (Q9NWZ3 1-460): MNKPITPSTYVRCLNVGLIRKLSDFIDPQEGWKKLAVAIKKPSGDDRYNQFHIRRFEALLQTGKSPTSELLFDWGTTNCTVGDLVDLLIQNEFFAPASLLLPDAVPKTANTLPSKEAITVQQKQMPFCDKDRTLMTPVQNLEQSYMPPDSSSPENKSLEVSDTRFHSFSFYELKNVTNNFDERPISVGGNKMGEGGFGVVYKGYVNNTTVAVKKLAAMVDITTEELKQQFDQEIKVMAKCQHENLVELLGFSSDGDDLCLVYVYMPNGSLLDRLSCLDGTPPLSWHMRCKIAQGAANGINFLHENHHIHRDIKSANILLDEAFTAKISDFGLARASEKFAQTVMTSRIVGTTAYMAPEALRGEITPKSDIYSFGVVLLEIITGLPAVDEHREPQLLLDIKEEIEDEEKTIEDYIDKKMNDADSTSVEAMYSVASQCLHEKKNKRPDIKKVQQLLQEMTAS
Format: cell-based
Parameters: endogenous in cells; host or cells: PBMC
In short: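 Steps: seed cells (OCI-Ly10 1×10^6/ml; PBMC 2×10^6/ml); add compound the same day; incubate overnight; lyse; quantify IRAK-4 by matched-pair ELISA.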

| Structure (SMILES) | DC50 | Dmax | PBMC DC90 | PBMC Dmax |
| --- | --- | --- | --- | --- |
| CC(C)Oc1cc2c(cc1NC(=O)c1cnn3cccnc13)CN(C1CCN(C3(C)CN(c4ccc5c(c4)CN(C4CCC(=O)NC4=O)C5=O)C3)CC1)C2=O (stereo not drawn) [Example 275] | < 1 nM | ≥ 90% | A (A represents a DC90 value <10.0 nM) | – |
| CC(C)Oc1cc2c(cc1NC(=O)c1cnn3cccnc13)CN([C@H]1CC[C@@H](N3CCN(c4ccc5c(c4)CN(C4CCC(=O)NC4=O)C5=O)CC3)CC1)C2=O (stereo partly drawn) [Example 276] | < 1 nM | 80 to 90% | A (A represents a DC90 value <10.0 nM) | – |
| CC(C)Oc1cc2c(cc1NC(=O)c1cnn3cccnc13)CN([C@H]1CC[C@@H](N3CC4(CN(c5ccc6c(c5)CN(C5CCC(=O)NC5=O)C6=O)C4)C3)CC1)C2=O (stereo partly drawn) [Example 277] | < 1 nM | ≥ 90% | A (A represents a DC90 value <10.0 nM) | – |
| CC(C)Oc1cc2c(cc1NC(=O)c1cnn3cccnc13)CN([C@H]1CC[C@H](N3CC4(CN(c5ccc6c(c5)CN(C5CCC(=O)NC5=O)C6=O)C4)C3)CC1)C2=O (stereo partly drawn) [Example 284] | < 1 nM | ≥ 90% | A (A represents a DC90 value <10.0 nM) | – |
| CC(C)Oc1cc2c(cc1NC(=O)c1cnn3cccnc13)CN(C1CCN(CC3CCN(c4ccc(C(=O)NC5CCC(=O)NC5=O)c(F)c4)CC3)CC1)C2=O (stereo not drawn) [Example 286, N-[2-[1-[[1-[4-[(2,6-dioxo-3-piperidyl)carbamoyl]-3-fluoro-phenyl]-4-piperidyl]methyl]-4-piperidyl]-6-isopropoxy-1-oxo-isoindolin-5-yl]pyrazolo[1,5-a]pyrimidine-3-carboxamide] | 1 to 5 nM | ≥ 90% | B (B represents a DC90 value ≥10.0 nM and <25.0 nM) | – |
| O=C1CCC(NC(=O)c2ccc(N3CC(F)(CN4CCC(n5cc6cc(NC(=O)c7cnn8cccnc78)c(OCC7CC7)cc6n5)CC4)C3)cc2F)C(=O)N1 (stereo not drawn) [Example 291] | 1 to 5 nM | ≥ 90% | B (B represents a DC90 value ≥10.0 nM and <25.0 nM) | – |
| CC(C)Oc1cc2c(cc1NC(=O)c1cnn3cccnc13)CN(C1CCN(CC3CN(c4ccc(C(=O)NC5CCC(=O)NC5=O)c(F)c4)C3)CC1)C2=O (stereo not drawn) [Example 292] | < 1 nM | ≥ 90% | A (A represents a DC90 value <10.0 nM) | – |
| CC(C)Oc1cc2nn(C3CCN(CC4(F)CN(c5ccc(C(=O)NC6CCC(=O)NC6=O)c(F)c5)C4)CC3)cc2cc1NC(=O)c1cnn2cccnc12 (stereo not drawn) [Example 293] | 1 to 5 nM | ≥ 90% | B (B represents a DC90 value ≥10.0 nM and <25.0 nM) | – |
| CC(C)Oc1cc2c(cc1NC(=O)c1cnn3cccnc13)CN(C1CCN(CC3(F)CN(c4ccc(C(=O)NC5CCC(=O)NC5=O)c(F)c4)C3)CC1)C2=O (stereo not drawn) [Example 297] | 1 to 5 nM | ≥ 90% | B (B represents a DC90 value ≥10.0 nM and <25.0 nM) | – |
| O=C1CCC(NC(=O)c2ccc(N3CC(F)(CN4CCC(N5Cc6cc(NC(=O)c7cnn8cccnc78)c(OCC7CC7)cc6C5=O)CC4)C3)cc2F)C(=O)N1 (stereo not drawn) [Example 298] | ≥ 10 nM | ≥ 90% | D (D represents a DC90 value ≥50 nM) | – |
| CC(C)Oc1cc2c(cc1NC(=O)c1cnn3ccc(N4CCOCC4)nc13)CN(C1CCC(N(C)C3CN(c4ccc5c(c4)CN(C4CCC(=O)NC4=O)C5=O)C3)CC1)C2=O (stereo not drawn) [Example 315] | 5 to 10 nM | < 70% | D (D represents a DC90 value ≥50 nM) | – |
| CC(C)Oc1cc2c(cc1NC(=O)c1cnn3cccnc13)CN(C1CCC(N(C)C3CCN(c4ccc5c(c4)C(=O)N(C4CCC(=O)NC4=O)C5=O)CC3)CC1)C2=O (stereo not drawn) [Example 316] | < 1 nM | ≥ 90% | A (A represents a DC90 value <10.0 nM) | – |
| CC(C)Oc1cc2nn([C@H]3CC[C@H](N(C)C4CCN(c5ccc6c(c5)C(=O)N(C5CCC(=O)NC5=O)C6=O)CC4)CC3)cc2cc1NC(=O)c1cnn2cccnc12 (stereo partly drawn) [Example 317] | < 1 nM | ≥ 90% | A (A represents a DC90 value <10.0 nM) | – |
| CC(C)Oc1cc2nn([C@H]3CC[C@H](N(C)C4CN(c5ccc6c(c5)C(=O)N(C5CCC(=O)NC5=O)C6=O)C4)CC3)cc2cc1NC(=O)c1cnn2cccnc12 (stereo partly drawn) [Example 318] | < 1 nM | ≥ 90% | A (A represents a DC90 value <10.0 nM) | – |
| CCN(C1CN(c2ccc3c(c2)C(=O)N(C2CCC(=O)NC2=O)C3=O)C1)[C@H]1CC[C@H](n2cc3cc(NC(=O)c4cnn5cccnc45)c(OC(C)C)cc3n2)CC1 (stereo partly drawn) [Example 319] | 1 to 5 nM | 80 to 90% | A (A represents a DC90 value <10.0 nM) | – |
| CCN(C1CN(c2cccc3c2C(=O)N(C2CCC(=O)NC2=O)C3=O)C1)[C@H]1CC[C@H](n2cc3cc(NC(=O)c4cnn5cccnc45)c(OC(C)C)cc3n2)CC1 (stereo partly drawn) [Example 320] | ≥ 10 nM | 80 to 90% | D (D represents a DC90 value ≥50 nM) | – |

| Structure (SMILES) | DC50 | Dmax | PBMC DC90 | PBMC Dmax |
| --- | --- | --- | --- | --- |
| COc1cc(N2CC(N(C)[C@H]3CC[C@H](N4Cc5cc(NC(=O)c6cnn7cccnc67)c(OC(C)C)cc5C4=O)CC3)C2)cc2c1C(=O)N(C1CCC(=O)NC1=O)C2=O (stereo partly drawn) [Example 321] | 1 to 5 nM | ≥ 90% | A (A represents a DC90 value <10.0 nM) | – |
| CCN(C1CN(c2ccc(C(=O)NC3CCC(=O)NC3=O)c(F)c2)C1)[C@H]1CC[C@H](n2cc3cc(NC(=O)c4cnn5cccnc45)c(OC(C)C)cc3n2)CC1 (stereo partly drawn) [Example 322] | 1 to 5 nM | ≥ 90% | A (A represents a DC90 value <10.0 nM) | – |
| CN(C1CCC(n2cc3cc(NC(=O)c4cnn5cccnc45)c(OCC4CC4)cc3n2)CC1)C1CCN(c2ccc3c(c2)C(=O)N(C2CCC(=O)NC2=O)C3=O)CC1 (stereo not drawn) [Example 323] | < 1 nM | ≥ 90% | A (A represents a DC90 value <10.0 nM) | – |
| CN(C1CN(c2ccc3c(c2)CN(C2CCC(=O)NC2=O)C3=O)C1)[C@H]1CC[C@H](n2cc3cc(NC(=O)c4cnn5cccnc45)c(OCC4CC4)cc3c2)CC1 (stereo partly drawn) [Example 324] | < 1 nM | ≥ 90% | A (A represents a DC90 value <10.0 nM) | – |
| CCN(C1CCC(n2cc3cc(NC(=O)c4cnn5cccnc45)c(OCC4CC4)cc3n2)CC1)C1CN(c2ccc3c(c2)C(=O)N(C2CCC(=O)NC2=O)C3=O)C1 (stereo not drawn) [Example 325] | 1 to 5 nM | ≥ 90% | C (C represents a DC90 value ≥25.0 nM and <50 nM) | – |
| O=C1CCC(N2C(=O)c3ccc(N4CC(N(CC(F)F)C5CCC(n6cc7cc(NC(=O)c8cnn9cccnc89)c(OCC8CC8)cc7n6)CC5)C4)cc3C2=O)C(=O)N1 (stereo not drawn) [Example 326] | 1 to 5 nM | ≥ 90% | B (B represents a DC90 value ≥10.0 nM and <25.0 nM) | – |
| O=C1CCC(N2C(=O)c3ccc(N4CC(N(CC(F)(F)F)C5CCC(n6cc7cc(NC(=O)c8cnn9cccnc89)c(OCC8CC8)cc7n6)CC5)C4)cc3C2=O)C(=O)N1 (stereo not drawn) [Example 327] | ≥ 10 nM | 80 to 90% | D (D represents a DC90 value ≥50 nM) | – |
| CC(C)Oc1cc2c(cc1NC(=O)c1cnn3cccnc13)CN(C1CCC(N(C)C3CN(c4ccc(C(=O)NC5CCC(=O)NC5=O)c(F)c4)C3)CC1)C2=O (stereo not drawn) [Example 328] | < 1 nM | ≥ 90% | A (A represents a DC90 value <10.0 nM) | – |
| CC(C)Oc1cc2c(cc1NC(=O)c1cnn3cccnc13)CN(C1CCC(N(C)C3CN(c4ccc5c(c4)CN(C4CCC(=O)NC4=O)C5=O)C3)CC1)C2=O (stereo not drawn) [Example 329] | – | – | A (A represents a DC90 value <10.0 nM) | A (A represents a Dmax value ≥90) |
| CC(C)Oc1cc2c(cc1NC(=O)c1cnn3cccnc13)CN([C@H]1CC[C@H](N(C)C3CN(c4ccc5c(c4)CN(C4CCC(=O)NC4=O)C5=O)C3)CC1)C2=O (stereo partly drawn) [Example 329] | < 1 nM | – | – | – |
| CCN(C1CCC(N2Cc3cc(NC(=O)c4cnn5cccnc45)c(OC(C)C)cc3C2=O)CC1)C1CN(c2ccc3c(c2)CN(C2CCC(=O)NC2=O)C3=O)C1 (stereo not drawn) [Example 330] | < 1 nM | ≥ 90% | A (A represents a DC90 value <10.0 nM) | – |
| CC(C)Oc1cc2c(cc1NC(=O)c1cnn3cccnc13)CN(C1CCC(N(CC(F)F)C3CN(c4ccc5c(c4)C(=O)N(C4CCC(=O)NC4=O)C5=O)C3)CC1)C2=O (stereo not drawn) [Example 331] | 1 to 5 nM | ≥ 90% | B (B represents a DC90 value ≥10.0 nM and <25.0 nM) | – |
| CC(C)Oc1cc2c(cc1NC(=O)c1cnn3cccnc13)CN(C1CCC(N(CC(F)(F)F)C3CN(c4ccc5c(c4)C(=O)N(C4CCC(=O)NC4=O)C5=O)C3)CC1)C2=O (stereo not drawn) [Example 332] | ≥ 10 nM | ≥ 90% | D (D represents a DC90 value ≥50 nM) | – |
| CN(C1CCC(N2Cc3cc(NC(=O)c4cnn5cccnc45)c(OC4CC4)cc3C2=O)CC1)C1CN(c2ccc3c(c2)C(=O)N(C2CCC(=O)NC2=O)C3=O)C1 (stereo not drawn) [Example 341] | < 1 nM | ≥ 90% | A (A represents a DC90 value <10.0 nM) | – |
| CN(C1CCC(N2Cc3cc(NC(=O)c4cnn5cccnc45)c(OC4CC4)cc3C2=O)CC1)C1CCN(c2ccc3c(c2)C(=O)N(C2CCC(=O)NC2=O)C3=O)CC1 (stereo not drawn) [Example 342] | < 1 nM | ≥ 90% | A (A represents a DC90 value <10.0 nM) | – |
| CN(C1CN(c2ccc3c(c2)C(=O)N(C2CCC(=O)NC2=O)C3=O)C1)[C@H]1CC[C@H](n2cc3cc(NC(=O)c4cnn5cccnc45)c(C4CC4)cc3n2)CC1 (stereo partly drawn) [Example 343] | < 1 nM | ≥ 90% | A (A represents a DC90 value <10.0 nM) | – |
